Measurements taken from PMC8698333 (Biomedicines, 2021).
No end group written: not given here.

Experiments:
hKOR with Gα3 subunit = molecular target: T1, hKOR with Gα3 subunit (Homo sapiens, UniProt P41145); assay: TRUPATH (BRET) G-protein dissociation, Gα3 subunit; format: cell-based; details: mean ± SEM
T1 construct: alpha7 nicotinic receptor signal peptide (N); expressed in transfected cells; host or cells: HEK293, transient

[1] = molecular target: T2, hKOR (β-arrestin recruitment) (Homo sapiens, UniProt P41145); assay: PRESTO-Tango β-arrestin recruitment assay; format: cell-based; details: SEM
T2 construct: tTA (Tango cassette); expressed in transfected cells; host or cells: HEK293, transient
T2 sequence (P41145 whole entry): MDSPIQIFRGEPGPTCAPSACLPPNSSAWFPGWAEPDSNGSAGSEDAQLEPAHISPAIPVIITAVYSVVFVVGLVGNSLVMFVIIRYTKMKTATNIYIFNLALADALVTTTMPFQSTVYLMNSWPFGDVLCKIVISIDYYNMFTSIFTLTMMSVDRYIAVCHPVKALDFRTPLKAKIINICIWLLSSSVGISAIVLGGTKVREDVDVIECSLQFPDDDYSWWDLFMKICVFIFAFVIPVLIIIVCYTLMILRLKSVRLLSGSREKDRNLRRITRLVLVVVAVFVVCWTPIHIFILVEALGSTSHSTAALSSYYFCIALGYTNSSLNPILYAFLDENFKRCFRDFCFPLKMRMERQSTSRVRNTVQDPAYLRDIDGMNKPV
T2 sequence (P32121 whole entry partner): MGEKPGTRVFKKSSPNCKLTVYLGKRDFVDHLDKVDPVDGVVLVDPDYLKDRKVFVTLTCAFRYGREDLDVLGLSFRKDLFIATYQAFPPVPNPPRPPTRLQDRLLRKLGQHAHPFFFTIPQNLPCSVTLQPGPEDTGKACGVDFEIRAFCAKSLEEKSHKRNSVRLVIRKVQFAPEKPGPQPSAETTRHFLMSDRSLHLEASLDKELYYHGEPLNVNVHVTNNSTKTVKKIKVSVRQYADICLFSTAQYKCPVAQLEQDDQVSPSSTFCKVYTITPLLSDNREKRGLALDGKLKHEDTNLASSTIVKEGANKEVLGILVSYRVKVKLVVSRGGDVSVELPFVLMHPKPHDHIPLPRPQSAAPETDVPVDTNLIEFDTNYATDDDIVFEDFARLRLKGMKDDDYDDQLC

hKOR with GαoB subunit = molecular target: T3, hKOR with GαoB subunit (Homo sapiens, UniProt P41145); assay: TRUPATH (BRET) G-protein dissociation, GαoB subunit; format: cell-based; details: SEM
T3 construct: alpha7 nicotinic receptor signal peptide (N); expressed in transfected cells; host or cells: HEK293, transient
T3 sequence (P41145 whole entry): as the sequence (P41145 whole entry) above
T3 sequence (P09471 1-354 isoform P09471-2 partner): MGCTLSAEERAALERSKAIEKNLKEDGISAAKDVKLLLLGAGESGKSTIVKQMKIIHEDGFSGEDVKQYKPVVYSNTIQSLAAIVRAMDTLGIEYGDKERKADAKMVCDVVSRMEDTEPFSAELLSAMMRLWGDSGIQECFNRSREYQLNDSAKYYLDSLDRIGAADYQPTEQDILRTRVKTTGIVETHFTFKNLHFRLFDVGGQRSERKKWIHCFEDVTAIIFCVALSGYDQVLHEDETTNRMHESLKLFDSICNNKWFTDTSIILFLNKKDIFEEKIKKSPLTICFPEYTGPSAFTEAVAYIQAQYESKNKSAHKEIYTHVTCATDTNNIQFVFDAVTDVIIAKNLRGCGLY
T3 sequence (P16520 whole entry partner): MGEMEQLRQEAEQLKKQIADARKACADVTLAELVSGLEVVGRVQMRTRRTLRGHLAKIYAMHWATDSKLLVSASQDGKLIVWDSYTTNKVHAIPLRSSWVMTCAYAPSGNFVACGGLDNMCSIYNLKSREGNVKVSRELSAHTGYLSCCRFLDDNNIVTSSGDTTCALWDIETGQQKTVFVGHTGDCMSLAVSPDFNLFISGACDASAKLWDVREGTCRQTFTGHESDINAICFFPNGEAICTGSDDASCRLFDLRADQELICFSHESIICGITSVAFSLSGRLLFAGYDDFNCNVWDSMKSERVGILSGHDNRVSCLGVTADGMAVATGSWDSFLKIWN
T3 sequence (Q9UK08 1-67 partner limits assumed): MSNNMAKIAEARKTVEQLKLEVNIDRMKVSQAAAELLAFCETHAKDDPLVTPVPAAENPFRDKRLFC

hKOR with Gα2 subunit = molecular target: T4, hKOR with Gα2 subunit (Homo sapiens, UniProt P41145); assay: TRUPATH (BRET) G-protein dissociation, Gα2 subunit; format: cell-based; details: SEM
T4 construct: alpha7 nicotinic receptor signal peptide (N); expressed in transfected cells; host or cells: HEK293, transient
T4 sequence (P41145 whole entry): as the sequence (P41145 whole entry) above
T4 sequence (P04899 whole entry partner): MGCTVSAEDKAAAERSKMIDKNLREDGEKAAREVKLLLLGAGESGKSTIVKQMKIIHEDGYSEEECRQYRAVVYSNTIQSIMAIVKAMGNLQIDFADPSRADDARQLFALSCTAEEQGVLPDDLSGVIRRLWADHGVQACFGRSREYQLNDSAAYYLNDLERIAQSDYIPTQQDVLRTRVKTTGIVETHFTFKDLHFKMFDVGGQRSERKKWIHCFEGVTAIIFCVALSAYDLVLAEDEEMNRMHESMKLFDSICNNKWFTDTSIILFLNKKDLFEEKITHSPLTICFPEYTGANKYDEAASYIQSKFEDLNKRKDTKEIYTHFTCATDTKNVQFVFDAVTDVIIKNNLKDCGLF
T4 sequence (P16520 whole entry partner): as the sequence (P16520 whole entry partner) above
T4 sequence (Q9UK08 1-67 partner limits assumed): as the sequence (Q9UK08 1-67 partner limits assumed) above

hKOR with GαZ subunit = molecular target: T5, hKOR with GαZ subunit (Homo sapiens, UniProt P41145); assay: TRUPATH (BRET) G-protein dissociation, GαZ subunit; format: cell-based; details: SEM
T5 construct: alpha7 nicotinic receptor signal peptide (N); expressed in transfected cells; host or cells: HEK293, transient
T5 sequence (P41145 whole entry): as the sequence (P41145 whole entry) above
T5 sequence (P19086 whole entry partner): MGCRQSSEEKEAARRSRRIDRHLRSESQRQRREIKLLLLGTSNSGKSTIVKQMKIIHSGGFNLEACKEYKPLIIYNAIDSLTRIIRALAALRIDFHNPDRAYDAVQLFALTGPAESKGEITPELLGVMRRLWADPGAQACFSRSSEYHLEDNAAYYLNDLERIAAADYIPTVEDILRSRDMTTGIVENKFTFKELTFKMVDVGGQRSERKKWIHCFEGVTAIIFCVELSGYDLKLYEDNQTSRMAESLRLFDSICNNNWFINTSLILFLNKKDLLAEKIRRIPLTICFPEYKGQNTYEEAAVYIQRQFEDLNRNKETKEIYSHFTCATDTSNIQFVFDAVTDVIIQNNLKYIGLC
T5 sequence (P16520 whole entry partner): as the sequence (P16520 whole entry partner) above
T5 sequence (P63211 1-71 partner limits assumed): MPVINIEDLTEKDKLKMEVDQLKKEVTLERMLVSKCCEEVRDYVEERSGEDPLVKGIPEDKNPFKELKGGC

hKOR with Gα1 subunit = molecular target: T6, hKOR with Gα1 subunit (Homo sapiens, UniProt P41145); assay: TRUPATH (BRET) G-protein dissociation, Gα1 subunit; format: cell-based; details: SEM
T6 construct: alpha7 nicotinic receptor signal peptide (N); expressed in transfected cells; host or cells: HEK293, transient
T6 sequence (P16520 whole entry): as the sequence (P16520 whole entry partner) above
T6 sequence (P63096 whole entry, further chain): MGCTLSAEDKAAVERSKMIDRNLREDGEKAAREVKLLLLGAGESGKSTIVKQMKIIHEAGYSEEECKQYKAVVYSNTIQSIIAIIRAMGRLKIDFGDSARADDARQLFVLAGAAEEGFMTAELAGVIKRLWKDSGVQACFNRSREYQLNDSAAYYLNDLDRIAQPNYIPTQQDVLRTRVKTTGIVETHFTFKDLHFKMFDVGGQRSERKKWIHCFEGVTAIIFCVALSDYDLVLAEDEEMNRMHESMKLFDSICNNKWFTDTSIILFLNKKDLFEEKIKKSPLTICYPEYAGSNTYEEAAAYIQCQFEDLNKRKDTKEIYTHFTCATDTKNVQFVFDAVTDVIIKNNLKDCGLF
T6 sequence (P41145 whole entry): as the sequence (P41145 whole entry) above
T6 sequence (O14610 1-66, further chain): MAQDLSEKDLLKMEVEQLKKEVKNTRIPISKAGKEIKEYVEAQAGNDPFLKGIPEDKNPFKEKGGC

hKOR with GαoA subunit = hKOR with GαoA subunit (Homo sapiens, UniProt P41145); assay: cell-based; details: SEM
hKOR with GαoA subunit, sequence (P16520 whole entry): as the sequence (P16520 whole entry partner) above
hKOR with GαoA subunit, sequence (P41145 whole entry): as the sequence (P41145 whole entry) above
hKOR with GαoA subunit, sequence (P09471 whole entry, further chain): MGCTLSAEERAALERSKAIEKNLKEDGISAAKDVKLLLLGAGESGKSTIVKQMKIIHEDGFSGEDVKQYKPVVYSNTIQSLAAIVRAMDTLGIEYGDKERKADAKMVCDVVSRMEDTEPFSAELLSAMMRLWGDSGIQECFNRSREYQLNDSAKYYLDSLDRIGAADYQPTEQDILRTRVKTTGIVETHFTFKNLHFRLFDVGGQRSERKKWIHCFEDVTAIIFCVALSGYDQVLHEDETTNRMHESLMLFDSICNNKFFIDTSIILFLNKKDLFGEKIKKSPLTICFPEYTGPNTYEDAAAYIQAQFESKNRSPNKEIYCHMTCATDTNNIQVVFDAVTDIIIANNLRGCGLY
hKOR with GαoA subunit, sequence (Q9UK08 1-67, further chain): as the sequence (Q9UK08 1-67 partner limits assumed) above

[2] = molecular target: T7, human KOR receptors (hKOR) (Homo sapiens, UniProt P41145); assay: [35S]GTPγS functional assay on hKOR-CHO cell membranes; format: biochemical; details: SEM
T7 construct: expressed in transfected cells
T7 sequence (P41145 whole entry): as the sequence (P41145 whole entry) above
Protocol: CHO cells stably transfected with human KOR receptors (hKOR-CHO) were courtesy of Prof. Liu-Chen (Temple University, Philadelphia, PA, USA). Cells were grown in Gibco™ Dulbecco’s Minimal Essential Medium (DMEM) supplemented with 10% FBS, Glutamax (100 μg/mL), penicillin/ streptomycin (100 μg/mL) and geneticin (G418, 400 μg/mL). […] Cell cultures were maintained in a Heracell™ 150i CO2 incubator at 37 °C and 5.0% CO2.
Functional assays were conducted on hKOR-CHO cell membranes. Membranes were prepared in 50 mM Tris-HCl buffer pH 7.7. Cells were harvested by scraping the plates with a rubber policeman and were then centrifuged at 500× g for 10 min. The cell pellet was resuspended in Tris-HCl, homogenized with a Dounce homogenizer and centrifuged at 27,000× g for 15 min. […] The protein concentration of the homogenate was determined by Biuret reaction (RotiQuant Universal, Carl Roth) and stored at −70 °C until use.
To perform the GTPγS assay, membrane homogenates (10 μg/reaction tube) were diluted in HEPES buffer (20 mM) together with 10 μM GDP and 0.05 nM [^35S]GTPγS (Perkin Elmer, MA, USA). […] Non-specific binding was determined using 10 μM unlabeled GTPγS (Sigma-Aldrich, Vienna, Austria). Samples were filtered over glass fiber filters (GF/B Whatman) and the bound radioactivity was measured by liquid scintillation counting as counts per minute (CPM).

[3] = EC50, TRUPATH α3 (#, same cell batch), HEK293 with hKOR and Gα3, signal bias series marked #, performed on the same cell batch, n = 9

T1 sequence (P41145 whole entry): as above
T1 sequence (P08754 whole entry partner): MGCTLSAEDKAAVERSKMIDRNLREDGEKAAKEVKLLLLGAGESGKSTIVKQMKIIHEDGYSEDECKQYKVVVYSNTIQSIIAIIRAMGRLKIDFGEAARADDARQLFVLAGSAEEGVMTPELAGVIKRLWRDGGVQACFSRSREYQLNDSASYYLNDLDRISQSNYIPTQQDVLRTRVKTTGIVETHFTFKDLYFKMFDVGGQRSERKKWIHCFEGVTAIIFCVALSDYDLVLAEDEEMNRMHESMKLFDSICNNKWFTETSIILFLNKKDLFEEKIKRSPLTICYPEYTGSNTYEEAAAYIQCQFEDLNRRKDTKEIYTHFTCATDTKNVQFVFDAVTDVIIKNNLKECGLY
T1 sequence (P16520 whole entry partner): as the sequence (P16520 whole entry partner) above
T1 sequence (O14610 1-66 partner limits assumed): as the sequence (O14610 1-66, further chain) above

Sequence | EC50 (hKOR with Gα3 subunit; [3]) [nM] | EC50 [1] [nM] | EC50 (hKOR with GαoB subunit) [nM] | EC50 (hKOR with Gα2 subunit) [nM] | EC50 (hKOR with GαZ subunit) [nM] | EC50 (hKOR with Gα1 subunit) [nM] | EC50 (hKOR with GαoA subunit) [nM] | EC50 (hKOR with Gα3 subunit; EC50, TRUPATH α3, HEK293 transiently transfected with hKOR and Gα3, 30 min, n = 6 (transducerome series)) [nM] | EC50 [2] [nM]
YGGFSRRIRPKLKWDNQ [DynA_L5S] | 78 ± 37 | 236 ± 65 | – | – | – | – | – | – | –
YGGFLWRIRPKLKWDNQ [DynA_R6W] | 133 ± 75 | 670 ± 215 | 62 ± 15 | 78 ± 42 | 27 ± 9 | 211 ± 36 | 133 ± 80 | 161 ± 51 | 105 ± 23
YGGFLRRICPKLKWDNQ [DynA_R9C] | 24 ± 9 | 88 ± 32 | – | – | – | – | – | – | –
